{"source": "paper PMC10510716", "test": "Paal-Knorr pyrrole formation between a side-chain 1,4-diketone (DOP1, unmasked from 5-methylfuran in TFA/m-cresol 9:1) and a side-chain hydrazide (Nu2) or aminooxy group (Nu5); crude redissolved in mQ water", "conditions": "the molecule shown is the open-chain precursor, pH ~2.5, 5.0 mM"}
{"smiles": "CC(=O)CCC(=O)CCC(=O)NCCC[C@H](NC(C)=O)C(=O)N[C@@H](Cc1c[nH]c2ccccc12)C(=O)N[C@@H](CCCNC(=N)N)C(=O)NCC(=O)N[C@@H](CC(=O)O)C(=O)N[C@@H](Cc1ccc(O)cc1)C(=O)N[C@@H](CO)C(=O)N[C@@H](CCCNC(=O)CCC(=O)NN)C(N)=O", "values": [{"measurement": "ring closure, overall yield", "setting": "40-membered ring", "result": 4.3, "unit": "%"}]}
{"smiles": "CC(=O)CCC(=O)CCC(=O)NCCC[C@H](NC(=O)[C@H](Cc1ccc(O)cc1)NC(C)=O)C(=O)N[C@@H](CCCNC(=N)N)C(=O)NCC(=O)N[C@@H](CC(=O)O)C(=O)N[C@@H](CCCNC(=O)CCC(=O)NN)C(=O)N[C@@H](CO)C(=O)N[C@@H](Cc1c[nH]c2ccccc12)C(N)=O", "values": [{"measurement": "ring closure, overall yield", "setting": "31-membered ring", "result": 2.3, "unit": "%"}]}
{"smiles": "CC[C@H](C)[C@H](NC(=O)[C@H](CCC(=O)O)NC(=O)[C@H](CCCNC(=N)N)NC(=O)CNC(=O)[C@H](CCCCN)NC(=O)[C@H](CC(C)C)NC(=O)[C@H](Cc1c[nH]cn1)NC(=O)CNC(=O)[C@@H]1CCCN1C(C)=O)C(=O)NCC(=O)N[C@@H](CC(C)C)C(=O)N[C@@H](Cc1c[nH]c2ccccc12)C(=O)N[C@@H](Cc1ccc(O)cc1)C(=O)N[C@@H](C)C(=O)N[C@@H](CCCNC(=O)CCC(=O)NN)C(=O)N[C@@H](CCCCN)C(=O)N[C@@H](CCC(N)=O)C(=O)NCC(=O)N[C@@H](CCCNC(=O)CCC(=O)CCC(C)=O)C(=O)N[C@@H](CCCCN)C(=O)N[C@@H](CC(N)=O)C(=O)N[C@@H](CCCCN)C(N)=O", "values": [{"measurement": "ring closure, overall yield", "setting": "31-membered ring", "result": 8.24, "unit": "%"}]}
{"smiles": "CC[C@H](C)[C@H](NC(=O)[C@H](CCC(=O)O)NC(=O)[C@H](CCCNC(=N)N)NC(=O)CNC(=O)[C@H](CCCCN)NC(=O)[C@H](CC(C)C)NC(=O)[C@H](Cc1c[nH]cn1)NC(=O)CNC(=O)[C@@H]1CCCN1C(C)=O)C(=O)NCC(=O)N[C@@H](CC(C)C)C(=O)N[C@@H](Cc1c[nH]c2ccccc12)C(=O)N[C@@H](Cc1ccc(O)cc1)C(=O)N[C@@H](C)C(=O)N[C@@H](CCCNC(=O)CON)C(=O)N[C@@H](CCCCN)C(=O)N[C@@H](CCC(N)=O)C(=O)NCC(=O)N[C@@H](CCCNC(=O)CCC(=O)CCC(C)=O)C(=O)N[C@@H](CCCCN)C(=O)N[C@@H](CC(N)=O)C(=O)N[C@@H](CCCCN)C(N)=O", "values": [{"measurement": "ring closure, overall yield", "setting": "29-membered ring", "result": 3.48, "unit": "%"}]}
{"smiles": "CC(=O)CCC(=O)CCC(=O)NCCC[C@H](NC(C)=O)C(=O)N[C@@H](Cc1c[nH]c2ccccc12)C(=O)N[C@@H](CCCNC(=N)N)C(=O)NCC(=O)N[C@@H](CC(=O)O)C(=O)N[C@@H](Cc1ccc(O)cc1)C(=O)N[C@@H](CO)C(=O)N[C@@H](CCCNC(=O)CON)C(N)=O", "note": "[Ac-Orn(4,7-dioxooctanoyl)*-W-R-G-D-Y-S-Orn(COCH2ONH2)*-NH2]", "values": [{"measurement": "ring closure, overall yield", "setting": "38-membered ring", "result": 5.2, "unit": "%"}]}
